# Measured values published in PubChem BioAssay AID2060889 (Molecular Pharmacology Branch, DTP, NCI, 2025).
# Several values for one entry are separate records, joined by “and”; a condition that tells them apart may be missing. Equal values may be shown once.
# System: LG0567-F671-PDC complex spheroids viability
# Experiment: Anticancer human tumor LG0567-F671-PDC patient-derived lung adenocarcinoma cell line growth inhibition [RAS]
# Conditions: for viability, T/C: stronger effect = lower value
# Summary of the method: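 Agents were tested in combination matrices in half-log decrements from a top concentration at or near clinical Cmax (10 microM if undetermined). Targets were multi-cell spheroids of tumour lines plus HUVEC and MSC stromal cells.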
# [1] = curve of first compound, second compound 0.0316 µM
# [2] = curve of first compound, second compound 0.1 µM
# [3] = curve of first compound, second compound 0.316 µM
# [4] = curve of first compound, second compound 1 µM
# [5] = curve of first compound, second compound 3.16 µM
# [6] = curve of first compound, second compound 10 µM
# [7] = second compound 0.0316 µM, first compound 0.00316 µM
# [8] = second compound 0.0316 µM, first compound 0.01 µM
# [9] = second compound 0.0316 µM, first compound 0.0316 µM
# [10] = second compound 0.0316 µM, first compound 0.1 µM
# [11] = second compound 0.0316 µM, first compound 0.316 µM
# [12] = second compound 0.0316 µM, first compound 1 µM
# [13] = second compound 0.1 µM, first compound 0.00316 µM
# [14] = second compound 0.1 µM, first compound 0.01 µM
# [15] = second compound 0.1 µM, first compound 0.0316 µM
# [16] = second compound 0.1 µM, first compound 0.1 µM
# [17] = second compound 0.1 µM, first compound 0.316 µM
# [18] = second compound 0.1 µM, first compound 1 µM
# [19] = second compound 0.316 µM, first compound 0.00316 µM
# [20] = second compound 0.316 µM, first compound 0.01 µM
# [21] = second compound 0.316 µM, first compound 0.0316 µM
# [22] = second compound 0.316 µM, first compound 0.1 µM
# [23] = second compound 0.316 µM, first compound 0.316 µM
# [24] = second compound 0.316 µM, first compound 1 µM
# [25] = second compound 1 µM, first compound 0.00316 µM
# [26] = second compound 1 µM, first compound 0.01 µM
# [27] = second compound 1 µM, first compound 0.0316 µM
# [28] = second compound 1 µM, first compound 0.1 µM
# [29] = second compound 1 µM, first compound 0.316 µM
# [30] = second compound 1 µM, first compound 1 µM
# [31] = second compound 3.16 µM, first compound 0.00316 µM
# [32] = second compound 3.16 µM, first compound 0.01 µM
# [33] = second compound 3.16 µM, first compound 0.0316 µM
# [34] = second compound 3.16 µM, first compound 0.1 µM
# [35] = second compound 3.16 µM, first compound 0.316 µM
# [36] = second compound 3.16 µM, first compound 1 µM
# [37] = second compound 10 µM, first compound 0.00316 µM
# [38] = second compound 10 µM, first compound 0.01 µM
# [39] = second compound 10 µM, first compound 0.0316 µM
# [40] = second compound 10 µM, first compound 0.1 µM
# [41] = second compound 10 µM, first compound 0.316 µM
# [42] = second compound 10 µM, first compound 1 µM
# 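Note: spheroids exposed to compound for seven days before readout.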
# 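Throughout, for IC50: luminescence signal used as a proxy for viable cells.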
compound,measurement,setting,value
C=CC(=O)N1CCN(c2nc(OCC3CCCN3C)nc3c(F)c(-c4nc(N)cc(C)c4C(F)(F)F)c(Cl)cc23)C(C)C1 (stereo unspecified) + C#Cc1c(F)ccc2cc(O)cc(-c3ncc4c(N5CC6CCC(C5)N6)nc(OCC56CCCN5CC(F)C6)nc4c3F)c12,IC50,[1],< 3.16 nM
same,IC50,[2],< 3.16 nM
same,IC50,[3],< 3.16 nM
same,IC50,[4],< 3.16 nM
same,IC50,[5],< 3.16 nM
same,IC50,[6],< 3.16 nM
same,"viability, T/C",[7],17.4%
same,"viability, T/C",[8],12.2%
same,"viability, T/C",[9],11.1%
same,"viability, T/C",[10],12.7%
same,"viability, T/C",[11],12.4%
same,"viability, T/C",[12],11.7%
same,"viability, T/C",[13],14%
same,"viability, T/C",[14],12%
same,"viability, T/C",[15],9.61%
same,"viability, T/C",[16],11.5%
same,"viability, T/C",[17],11%
same,"viability, T/C",[18],10.9%
same,"viability, T/C",[19],16.3%
same,"viability, T/C",[20],15.7%
same,"viability, T/C",[21],11.2%
same,"viability, T/C",[22],8.83%
same,"viability, T/C",[23],13.8%
same,"viability, T/C",[24],9.54%
same,"viability, T/C",[25],20%
same,"viability, T/C",[26],12.6%
same,"viability, T/C",[27],10.3%
same,"viability, T/C",[28],8.88%
same,"viability, T/C",[29],9.02%
same,"viability, T/C",[30],8.65%
same,"viability, T/C",[31],14%
same,"viability, T/C",[32],10.2%
same,"viability, T/C",[33],8.81%
same,"viability, T/C",[34],7.62%
same,"viability, T/C",[35],9.35%
same,"viability, T/C",[36],8.07%
same,"viability, T/C",[37],10.8%
same,"viability, T/C",[38],8.76%
same,"viability, T/C",[39],8.93%
same,"viability, T/C",[40],9.51%
same,"viability, T/C",[41],9.18%
same,"viability, T/C",[42],8.52%
CCC(CC)c1cc(NC2CCC(N)C2)n2nccc2n1 (stereo unspecified),"viability, T/C",compound 0.0316 µM,101% [middle of 4 runs]
same,"viability, T/C",compound 0.1 µM,106% [middle of 4 runs]
same,"viability, T/C",compound 0.316 µM,100% and 103% (2×) and 138%
same,"viability, T/C",compound 1 µM,111% and 103% (2×) and 118%
same,"viability, T/C",compound 3.16 µM,5.03% [middle of 4 runs]
same,"viability, T/C",compound 10 µM,0.67% [middle of 4 runs]
same,IC50,curve of compound,1.86 µM [middle of 4 runs]
C=CC(=O)Nc1cc(Nc2nccc(-c3cn(C)c4ccccc34)n2)c(OC)cc1N(C)CCN(C)C + C#Cc1c(F)ccc2cc(O)cc(-c3ncc4c(N5CC6CCC(C5)N6)nc(OCC56CCCN5CC(F)C6)nc4c3F)c12,IC50,[1],120 nM
same,IC50,[2],84.3 nM
same,IC50,[3],8.15 nM
same,IC50,[4],< 3.16 nM
same,IC50,[5],< 3.16 nM
same,IC50,[6],< 3.16 nM
same,"viability, T/C",[7],88.7%
same,"viability, T/C",[8],80.7%
same,"viability, T/C",[9],67.4%
same,"viability, T/C",[10],54.1%
same,"viability, T/C",[11],34.5%
same,"viability, T/C",[12],19.1%
same,"viability, T/C",[13],79.8%
same,"viability, T/C",[14],74.8%
same,"viability, T/C",[15],66.8%
same,"viability, T/C",[16],47.1%
same,"viability, T/C",[17],27%
same,"viability, T/C",[18],16.2%
same,"viability, T/C",[19],53.4%
same,"viability, T/C",[20],49.3%
same,"viability, T/C",[21],42.8%
same,"viability, T/C",[22],28.4%
same,"viability, T/C",[23],22.1%
same,"viability, T/C",[24],11.3%
same,"viability, T/C",[25],38.1%
same,"viability, T/C",[26],32.8%
same,"viability, T/C",[27],28.9%
same,"viability, T/C",[28],20.4%
same,"viability, T/C",[29],11.9%
same,"viability, T/C",[30],6.5%
same,"viability, T/C",[31],20.5%
same,"viability, T/C",[32],17%
same,"viability, T/C",[33],16.2%
same,"viability, T/C",[34],12.2%
same,"viability, T/C",[35],8.15%
same,"viability, T/C",[36],4.09%
same,"viability, T/C",[37],13.5%
same,"viability, T/C",[38],10.9%
same,"viability, T/C",[39],9.25%
same,"viability, T/C",[40],6.54%
same,"viability, T/C",[41],4.27%
same,"viability, T/C",[42],2.83%
